Assay results as given in patent US20240383852A1, “ANTI-VIRAL COMPOUNDS” (INFEX Therapeutics Limited, priority 2021, published 2024).
pIC50: −log10 of the molar value.

How the values were obtained:
[1] = test system: SARS-CoV-2; test: Anti-viral potency in VERO E6 cells (cytopathic viral activity, crystal violet); format: cell-based; conditions: Severe acute respiratory syndrome coronavirus 2, Vero C1008, 48 h, read-out: SARS-COV-2 EC50 (μM)
[2] = test system: human Hep G2 cells (ATCC HB-8065); test: Cytotoxicity in Hep G2 cells (CellTiter-Glo); format: cell-based; conditions: Hep G2 cells, 100 μM test article, 24-hour exposure
[3] = target: T1, SARS-CoV-2 PLpro (Severe acute respiratory syndrome coronavirus 2, UniProt P0DTD1); test: biochemical; conditions: 60 nM papain-like protease, 50 μM Z-RLRGG-AMC, pH 7.5, 37° C.; read-out: SARS-CoV-2 PLpro IC50
T1 construct: containing 60 nM papain-like protease

Q: How did the EC50 [1] turn out when `COc1cc([C@@H](C)NC(=O)c2cc(N3CCN(C)CC3)ccc2C)ccc1-c1cnn(C)c1` [Example 306, N-[(1R)-1-[3-Methoxy-4-(1-methylpyrazol-4-yl)phenyl]ethyl]-2-methyl-5-(4-methylpiperazin-1-yl)benzamide] was run?
A: The EC50 was under 5 µM.

Q: What about the “% Cell Viability” value [2] of the same molecule?
A: The value was 88.4%.

Q: And the pIC50 [3]?
A: Its pIC50 is over 5.70.
